# According to ChEMBL document CHEMBL1201862, “PubChem BioAssay data set” (2004):
# Calls of active or inactive are those of the source.
# How the values were obtained:
# Albumin = Albumin (Bos taurus, UniProt P02769); test: Counterscreen for inhibitors of T-cell receptor (TCR)-CD3 interaction: Fluorescence-based biochemical high throughput dose response assay to identify inhibitors of T-cell receptor (TCR)-CD3 interaction using a TAMRA-labeled BSA probe.; assay type: functional
# Paired box protein Pax-8 = Paired box protein Pax-8 (Homo sapiens, UniProt Q06710); test: inhibitors of PAX8-driven TPO luciferase reporter, dose response, RMG-I cells, cherry-pick (AID 687027); assay type: functional, cell-based;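 also: luciferase reporter driven by Pax8 target thyroperoxidase promoter measured by SteadyGlo luminescence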
# [1] = target: T1, Nuclear receptor subfamily 0 group B member 1 (Homo sapiens, UniProt P51843); assay type: functional, cell-based;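 also: HEK293T cells transfected with SF-1 and DAX-1 plus StAR promoter luciferase reporter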
# T1 sequence (P51843 whole entry): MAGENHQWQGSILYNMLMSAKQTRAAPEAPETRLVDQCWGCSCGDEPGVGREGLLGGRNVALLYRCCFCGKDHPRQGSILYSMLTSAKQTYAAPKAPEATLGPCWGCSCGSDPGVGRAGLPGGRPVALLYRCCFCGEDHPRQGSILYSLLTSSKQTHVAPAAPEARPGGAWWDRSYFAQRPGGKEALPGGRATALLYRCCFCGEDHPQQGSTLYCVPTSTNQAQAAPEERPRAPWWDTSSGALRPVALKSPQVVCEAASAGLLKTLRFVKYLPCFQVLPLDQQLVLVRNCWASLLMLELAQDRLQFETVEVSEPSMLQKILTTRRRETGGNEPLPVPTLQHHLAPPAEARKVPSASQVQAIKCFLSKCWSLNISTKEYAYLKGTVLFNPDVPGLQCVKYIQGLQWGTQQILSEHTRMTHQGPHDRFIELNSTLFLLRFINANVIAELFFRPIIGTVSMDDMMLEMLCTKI
# cells = assay type: functional, cell-based
# [2] = HEK293 cell cytotoxicity, dose response, cytotoxicity control, cherry-picks, set 5 (AID 1053117); assay type: functional, cell-based
# Vero = test: Vero cell toxicity, dose response, cytotoxicity control, plate reader, cherry-pick samples (AID 687020); assay type: functional, cell-based; conditions: Chlorocebus sabaeus
# [3] = target: Melanin-concentrating hormone receptor 1 (Homo sapiens, UniProt Q99705); test: Fluorescence-based counterscreen for antagonists of the G-protein coupled receptor 7 (GPR7): cell-based high throughput dose response assay to identify antagonists of the melanin-concentrating hormone receptor 1 (MCHR1).; assay type: functional
# [4] = target: T2, Rac GTPase-activating protein 1 (Homo sapiens, UniProt Q9H0H5); test: MgcRacGAP GTPase-activating activity inhibitors, confirmation, biochemical, ADP Hunter fluorescence, primary and confirmatory (AID 624330); assay type: functional
# T2 sequence (Q9H0H5 whole entry): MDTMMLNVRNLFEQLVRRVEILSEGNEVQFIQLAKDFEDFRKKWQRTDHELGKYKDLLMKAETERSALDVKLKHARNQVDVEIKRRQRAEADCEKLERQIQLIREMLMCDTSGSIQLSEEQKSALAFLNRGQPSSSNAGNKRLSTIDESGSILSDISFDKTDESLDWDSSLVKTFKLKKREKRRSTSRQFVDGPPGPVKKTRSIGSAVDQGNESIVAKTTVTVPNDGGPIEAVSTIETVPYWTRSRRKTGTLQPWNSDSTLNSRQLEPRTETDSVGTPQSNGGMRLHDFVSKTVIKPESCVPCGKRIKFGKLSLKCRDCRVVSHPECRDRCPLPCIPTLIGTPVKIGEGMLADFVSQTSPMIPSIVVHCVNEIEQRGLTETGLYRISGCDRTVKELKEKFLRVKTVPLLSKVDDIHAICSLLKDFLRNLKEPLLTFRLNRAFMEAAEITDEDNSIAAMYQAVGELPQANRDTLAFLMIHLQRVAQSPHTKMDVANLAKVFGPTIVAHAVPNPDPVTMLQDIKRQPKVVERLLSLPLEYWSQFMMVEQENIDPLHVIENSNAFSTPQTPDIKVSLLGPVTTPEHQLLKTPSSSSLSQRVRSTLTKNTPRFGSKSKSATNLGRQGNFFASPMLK
# Mu-type opioid receptor = Mu-type opioid receptor (Homo sapiens, UniProt P35372); assay type: functional, cell-based;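 also: U2OS cells with beta-arrestin recruitment to OPRM1 by beta-gal complementation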
# [5] = target: 5-hydroxytryptamine receptor 2A (Mus musculus, UniProt P35363); assay type: functional, cell-based;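 also: CHO-K1 cells with tagged receptor and beta-arrestin; agonist potency measured as compound-induced activation of the receptor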
# [6] = target: T3, Long-chain-fatty-acid--AMP ligase FadD28 (Mycobacterium tuberculosis, UniProt P9WQ59); test: Fluorescence polarization aasay to screen for inhibitors that compete for the binding of FadD28 to a bisubstrate Measured in Biochemical System Using Plate Reader - 2147-01_Inhibitor_Dose_CherryPick_Activity.; assay type: functional, Mycobacterium tuberculosis H37Rv
# T3 sequence (P9WQ59 whole entry): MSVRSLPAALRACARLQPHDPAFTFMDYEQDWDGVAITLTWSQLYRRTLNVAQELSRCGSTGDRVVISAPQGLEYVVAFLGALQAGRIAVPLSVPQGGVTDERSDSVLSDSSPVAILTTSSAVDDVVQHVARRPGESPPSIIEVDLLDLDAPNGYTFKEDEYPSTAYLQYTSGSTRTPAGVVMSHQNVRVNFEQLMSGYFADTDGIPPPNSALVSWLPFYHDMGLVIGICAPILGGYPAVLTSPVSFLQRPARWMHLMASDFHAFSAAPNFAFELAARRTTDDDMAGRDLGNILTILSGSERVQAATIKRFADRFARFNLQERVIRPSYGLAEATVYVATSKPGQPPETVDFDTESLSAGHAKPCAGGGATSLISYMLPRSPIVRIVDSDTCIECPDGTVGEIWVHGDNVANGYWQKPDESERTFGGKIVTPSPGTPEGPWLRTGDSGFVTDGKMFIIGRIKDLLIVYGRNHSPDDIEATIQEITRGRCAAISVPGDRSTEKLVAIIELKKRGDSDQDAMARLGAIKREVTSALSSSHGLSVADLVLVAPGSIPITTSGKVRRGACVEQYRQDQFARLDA
# [7] = target: T4, Neuropeptides B/W receptor type 1 (Homo sapiens, UniProt P48145); test: Fluorescence-based dose response cell-based high throughput screening assay to identify antagonists of the G-protein coupled receptor 7 (GPR7). [Related pubchem assays: 1952 (Screening assay (GPR7 antagonists).), 1880 (Summary AID.)]; assay type: functional
# T4 sequence (P48145 whole entry): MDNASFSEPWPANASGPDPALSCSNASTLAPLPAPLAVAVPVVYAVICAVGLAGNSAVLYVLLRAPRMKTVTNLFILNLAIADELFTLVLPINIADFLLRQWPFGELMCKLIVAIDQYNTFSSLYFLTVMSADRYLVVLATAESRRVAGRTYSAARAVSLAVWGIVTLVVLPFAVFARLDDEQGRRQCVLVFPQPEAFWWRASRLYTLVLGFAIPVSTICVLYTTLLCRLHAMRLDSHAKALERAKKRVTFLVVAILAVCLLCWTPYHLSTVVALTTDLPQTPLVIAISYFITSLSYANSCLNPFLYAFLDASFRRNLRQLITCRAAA
# [8] = target: T5, Oxysterols receptor LXR-beta (Homo sapiens, UniProt P55055); assay type: functional, cell-based;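 also: agonist activity at LXR measured by a cell-based luminescence readout across a dose range, run as a counterscreen for daf-12 agonists; HEK293 cells with Gal4-LXR fusion and GAL4-driven luciferase reporter; potency for activation of Gal4-LXR reporter so compounds are agonists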
# T5 sequence (P55055 whole entry): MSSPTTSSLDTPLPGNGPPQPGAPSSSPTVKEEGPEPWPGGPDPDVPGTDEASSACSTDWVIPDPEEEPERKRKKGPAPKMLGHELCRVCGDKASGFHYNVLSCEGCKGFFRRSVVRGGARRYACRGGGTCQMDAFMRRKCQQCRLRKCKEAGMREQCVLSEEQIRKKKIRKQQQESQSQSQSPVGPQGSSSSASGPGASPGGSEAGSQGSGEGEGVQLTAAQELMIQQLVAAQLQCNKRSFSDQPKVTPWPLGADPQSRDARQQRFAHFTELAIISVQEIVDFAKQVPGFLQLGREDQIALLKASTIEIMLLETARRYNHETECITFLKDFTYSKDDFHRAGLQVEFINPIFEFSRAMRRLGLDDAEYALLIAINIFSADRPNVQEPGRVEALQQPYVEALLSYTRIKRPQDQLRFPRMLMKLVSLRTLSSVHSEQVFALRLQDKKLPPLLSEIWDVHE
# [9] = NIH3T3 fibroblast cytotoxicity, dose response, cytotoxicity control for PglD inhibitor project, cell-based, CellTiter-Glo luminescence, dry powder (AID 652044); assay type: functional
# [10] = target: Potassium channel subfamily K member 9 (Homo sapiens, UniProt Q9NPC2); test: TASK3 (KCNK9) channel inhibitors, thallium flux, SAR follow-up, selectivity assay for TASK1 inhibitor project, cell-based, FluxOR thallium flux, concentration-response (AID 652211); assay type: functional;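 also: potency is for inhibitors of the channel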
# HeLa = test: HeLa cell cytotoxicity, dose response, cytotoxicity control, ATP luminescence, cherry-pick samples (AID 687004); assay type: functional, cell-based; conditions: Homo sapiens
# Chain of Paired box protein Pax-8 (Q06710 whole entry): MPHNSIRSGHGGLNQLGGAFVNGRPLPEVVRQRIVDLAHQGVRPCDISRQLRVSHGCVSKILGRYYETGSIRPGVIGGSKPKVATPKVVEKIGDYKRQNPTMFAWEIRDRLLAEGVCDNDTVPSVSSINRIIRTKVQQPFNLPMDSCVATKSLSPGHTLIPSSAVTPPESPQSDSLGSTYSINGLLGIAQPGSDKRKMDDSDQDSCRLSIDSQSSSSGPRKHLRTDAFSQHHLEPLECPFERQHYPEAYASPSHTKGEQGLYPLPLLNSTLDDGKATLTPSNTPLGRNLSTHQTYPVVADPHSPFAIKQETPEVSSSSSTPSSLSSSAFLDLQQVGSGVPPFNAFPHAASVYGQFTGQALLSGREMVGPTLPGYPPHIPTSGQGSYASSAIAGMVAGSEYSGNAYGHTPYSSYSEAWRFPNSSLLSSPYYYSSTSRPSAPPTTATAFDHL
# Chain of Mu-type opioid receptor (P35372 whole entry): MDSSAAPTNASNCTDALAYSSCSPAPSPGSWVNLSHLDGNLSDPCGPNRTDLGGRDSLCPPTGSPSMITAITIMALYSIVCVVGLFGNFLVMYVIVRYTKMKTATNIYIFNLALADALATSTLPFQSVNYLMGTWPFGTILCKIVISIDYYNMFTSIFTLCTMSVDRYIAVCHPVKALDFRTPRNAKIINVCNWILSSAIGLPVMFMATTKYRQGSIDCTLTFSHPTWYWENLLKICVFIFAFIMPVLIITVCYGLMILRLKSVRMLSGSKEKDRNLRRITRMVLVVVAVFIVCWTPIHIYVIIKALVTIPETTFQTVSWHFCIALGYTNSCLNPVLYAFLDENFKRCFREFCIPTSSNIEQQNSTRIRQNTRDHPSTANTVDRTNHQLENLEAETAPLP
# Chain of 5-hydroxytryptamine receptor 2A (P35363 whole entry): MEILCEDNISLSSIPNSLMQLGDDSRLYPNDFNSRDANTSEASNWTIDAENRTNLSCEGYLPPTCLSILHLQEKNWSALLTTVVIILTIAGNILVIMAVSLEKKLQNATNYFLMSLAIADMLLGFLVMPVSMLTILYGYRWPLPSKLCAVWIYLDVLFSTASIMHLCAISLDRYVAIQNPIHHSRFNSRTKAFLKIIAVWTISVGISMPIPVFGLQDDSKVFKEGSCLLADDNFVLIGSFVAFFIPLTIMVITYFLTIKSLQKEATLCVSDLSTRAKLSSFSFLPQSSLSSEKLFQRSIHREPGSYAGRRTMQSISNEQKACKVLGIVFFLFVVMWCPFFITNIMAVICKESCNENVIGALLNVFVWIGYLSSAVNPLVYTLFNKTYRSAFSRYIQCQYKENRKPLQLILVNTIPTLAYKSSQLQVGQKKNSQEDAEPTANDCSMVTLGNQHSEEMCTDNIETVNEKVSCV
# Chain of Potassium channel subfamily K member 9 (Q9NPC2 whole entry): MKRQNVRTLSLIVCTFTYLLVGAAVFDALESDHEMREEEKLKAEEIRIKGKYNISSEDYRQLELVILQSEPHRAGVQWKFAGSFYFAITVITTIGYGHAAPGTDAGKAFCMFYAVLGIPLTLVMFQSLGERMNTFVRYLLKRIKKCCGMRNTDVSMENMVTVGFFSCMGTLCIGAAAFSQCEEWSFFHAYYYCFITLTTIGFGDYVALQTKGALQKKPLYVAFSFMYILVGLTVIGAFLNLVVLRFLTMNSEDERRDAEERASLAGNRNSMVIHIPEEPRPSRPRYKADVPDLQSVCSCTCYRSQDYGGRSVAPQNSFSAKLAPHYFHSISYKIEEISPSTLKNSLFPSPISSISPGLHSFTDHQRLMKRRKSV
# Chain of Albumin (P02769 whole entry): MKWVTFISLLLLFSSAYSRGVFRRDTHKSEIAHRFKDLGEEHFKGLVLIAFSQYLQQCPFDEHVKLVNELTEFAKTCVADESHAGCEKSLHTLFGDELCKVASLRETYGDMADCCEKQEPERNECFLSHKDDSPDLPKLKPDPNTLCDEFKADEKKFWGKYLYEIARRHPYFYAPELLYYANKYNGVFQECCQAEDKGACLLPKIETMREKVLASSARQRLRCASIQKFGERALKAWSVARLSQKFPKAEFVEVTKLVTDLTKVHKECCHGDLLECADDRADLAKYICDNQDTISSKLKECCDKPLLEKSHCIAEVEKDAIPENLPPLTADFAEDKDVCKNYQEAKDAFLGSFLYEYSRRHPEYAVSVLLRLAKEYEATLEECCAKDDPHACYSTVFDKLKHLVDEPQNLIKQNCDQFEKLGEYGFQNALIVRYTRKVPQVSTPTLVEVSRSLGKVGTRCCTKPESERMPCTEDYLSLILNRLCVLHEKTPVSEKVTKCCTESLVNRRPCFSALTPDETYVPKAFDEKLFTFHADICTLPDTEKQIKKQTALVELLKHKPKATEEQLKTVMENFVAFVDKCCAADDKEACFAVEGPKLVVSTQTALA
# Chain of Melanin-concentrating hormone receptor 1 (Q99705 whole entry): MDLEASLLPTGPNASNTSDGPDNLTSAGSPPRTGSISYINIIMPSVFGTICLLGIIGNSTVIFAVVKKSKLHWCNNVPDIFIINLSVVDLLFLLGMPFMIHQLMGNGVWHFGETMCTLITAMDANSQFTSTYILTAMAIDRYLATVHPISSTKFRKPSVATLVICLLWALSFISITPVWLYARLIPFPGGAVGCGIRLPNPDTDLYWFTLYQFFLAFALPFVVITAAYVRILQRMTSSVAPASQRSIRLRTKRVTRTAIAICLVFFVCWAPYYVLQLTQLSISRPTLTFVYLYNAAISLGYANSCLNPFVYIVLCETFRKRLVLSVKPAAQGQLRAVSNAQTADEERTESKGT
smiles,measurement,setting,value
O=C(NNC(=O)c1ccc2ccccc2c1O)c1cccs1,IC50,Albumin,> 94.1 µM (inactive)
COc1cc(-c2cnc3c(NC=O)cc(-c4ccc(C)cc4)cn23)cc(OC)c1OC,AC50,Paired box protein Pax-8,< 0.26 µM (active)
same,IC50,[1],> 0.834 µM (active)
same,IC50,cells,> 67.5 µM (inactive)
CN(C)C(=O)c1ccc(-c2ccc3c(c2)[C@@H]2[C@@H](CCN2C(=O)c2ccc(F)cc2)[C@H](CO)N3C)cc1,AC50,[2],> 52 µM (inactive)
CCOC(=O)[C@@H]1[C@H]2COc3ccc(Br)cc3[C@@H]2N2C(=O)N(c3ccc(C)cc3)C(=O)[C@]12C,AC50,Vero,35.3 µM (active)
C/N=c1\scc(-c2ccc(F)cc2)n1/N=C/c1ccc(O)c(O)c1,IC50,[3],13 µM (not active)
same,IC50,[4],29.6 µM (active)
same,EC50,Mu-type opioid receptor,92.5 µM (inactive)
same,EC50,[5],5.08 µM (active)
same,AC50,[6],12.2 µM (active)
same,IC50,[7],> 14.6 µM (not active)
O=C(Nc1ccc(Cl)cn1)c1cc2ccccc2o1,EC50,[8],> 67.5 µM (inactive)
CC(C)NC(=O)N(C)C[C@@H]1Oc2ccc(NC(=O)Cc3cn(C)c4ccccc34)cc2C(=O)N([C@H](C)CO)C[C@H]1C,AC50,[9],> 47 µM (inactive)
COc1cccc(C(=O)Nc2cccc(NC(=O)c3cccc(C)c3)c2)c1,IC50,[10],29.3 µM (active)
N#Cc1ccc(-c2ccc3c(c2)[C@H]2[C@H](CCN2C(=O)Cc2ccccc2)[C@@H](CO)N3)cc1,AC50,HeLa,28.5 µM (active)
